In ChEMBL document CHEMBL3804802, “Novel sulfonamide bearing coumarin scaffolds as selective inhibitors of tumor associated carbonic anhydrase isoforms IX and XII” (Bioorg Med Chem, 2016):
pKi: −log10 of the molar value.

target: Carbonic anhydrase 9 (Homo sapiens, UniProt Q16790); assay: Inhibition of human carbonic anhydrase 9 using saturated CO2 as substrate incubated for 10 mins prior to testing by stopped-flow CO2 hydrase assay

Compound	pKi
C/C(=N\Nc1ccc(S(N)(=O)=O)cc1)c1cc2cc(Cl)ccc2oc1=O	8.63
NS(=O)(=O)c1ccc(-n2cc(/C=N\Nc3nc(-c4cc5ccccc5oc4=O)cs3)c(-c3ccc(F)cc3)n2)cc1	8.64
NS(=O)(=O)c1ccc2c(c1)sc1nc(-c3cc4cc(Cl)ccc4oc3=O)cn12	7.94
NS(=O)(=O)c1ccc2c(c1)sc1nc(-c3cc4ccccc4oc3=O)cn12	7.36
Cc1ccc(-c2nn(-c3ccc(S(N)(=O)=O)cc3)cc2/C=N\Nc2nc(-c3cc4cc(Cl)ccc4oc3=O)cs2)cc1	7.61
NS(=O)(=O)c1ccc(-n2cc(/C=N\Nc3nc(-c4cc5ccccc5oc4=O)cs3)c(-c3ccc(Cl)cc3)n2)cc1	8.63
COc1ccc(-c2nn(-c3ccc(S(N)(=O)=O)cc3)cc2/C=N\Nc2nc(-c3cc4cc(Cl)ccc4oc3=O)cs2)cc1	7.69
COc1ccc(-c2nn(-c3ccc(S(N)(=O)=O)cc3)cc2/C=N\Nc2nc(-c3cc4cc(Br)ccc4oc3=O)cs2)cc1	7.70
NS(=O)(=O)c1ccc(-n2cc(/C=N\Nc3nc(-c4cc5ccccc5oc4=O)cs3)c(-c3ccccc3)n2)cc1	7.70
Cc1ccc(-c2nn(-c3ccc(S(N)(=O)=O)cc3)cc2/C=N\Nc2nc(-c3cc4ccccc4oc3=O)cs2)cc1	7.54
C/C(=N\Nc1ccc(S(N)(=O)=O)cc1)c1cc2ccccc2oc1=O	7.23
COc1ccc(-c2nn(-c3ccc(S(N)(=O)=O)cc3)cc2/C=N\Nc2nc(-c3cc4ccccc4oc3=O)cs2)cc1	7.66
NS(=O)(=O)c1ccc(-n2cc(/C=N\Nc3nc(-c4cc5cc(Cl)ccc5oc4=O)cs3)c(-c3ccc(Cl)cc3)n2)cc1	7.55
NS(=O)(=O)c1ccc(Nc2nc(-c3cc4cc(Cl)ccc4oc3=O)cs2)cc1	7.60
NS(=O)(=O)c1ccc(-n2cc(/C=N\Nc3nc(-c4cc5cc(Cl)ccc5oc4=O)cs3)c(-c3ccc(F)cc3)n2)cc1	8.60
NS(=O)(=O)c1ccc(-n2cc(/C=N\Nc3nc(-c4cc5cc(Cl)ccc5oc4=O)cs3)c(-c3ccccc3)n2)cc1	7.55

Second part, the compound after the results:

pKi	Compound
7.63	C/C(=N\Nc1ccc(S(N)(=O)=O)cc1)c1cc2cc(Br)ccc2oc1=O
7.60	NS(=O)(=O)c1ccc2c(c1)sc1nc(-c3cc4cc(Br)ccc4oc3=O)cn12
7.67	NS(=O)(=O)c1ccc(-n2cc(/C=N\Nc3nc(-c4cc5cc(Br)ccc5oc4=O)cs3)c(-c3ccccc3)n2)cc1
7.64	NS(=O)(=O)c1ccc(-n2cc(/C=N\Nc3nc(-c4cc5cc(Br)ccc5oc4=O)cs3)c(-c3ccc(Cl)cc3)n2)cc1
7.58	NS(=O)(=O)c1ccc(-n2cc(/C=N\Nc3nc(-c4cc5cc(Br)ccc5oc4=O)cs3)c(-c3ccc(F)cc3)n2)cc1
7.63	NS(=O)(=O)c1ccc(Nc2nc(-c3cc4cc(Br)ccc4oc3=O)cs2)cc1
7.59	Cc1ccc(-c2nn(-c3ccc(S(N)(=O)=O)cc3)cc2/C=N\Nc2nc(-c3cc4cc(Br)ccc4oc3=O)cs2)cc1
7.62	NS(=O)(=O)c1ccc(Nc2nc(-c3cc4ccccc4oc3=O)cs2)cc1
